One assay concerns 4T1-luc breast tumors. In words: 4T1-luc TNBC tumors in syngeneic immunocompetent mice. In kind it is in vivo. The method, then:
(§1) FIGS. 6A and 6B show growth curves (FIG. 6A) and images (FIG. 6B) of control, FBXO7 KD, and FBXO7 KD+GAS6 MDA-MB-231 breast tumors in immunocompromised mice. […] FIGS. 6E and 6F show growth curves (FIG. 6E) and images (FIG. 6F) of control and GAS6-expressing MDA-MB-231-luc breast tumors in immunocompromised mice treated with vehicle or EYA2i.
Immunocompetent mice bearing 4T1-luc TNBCs were treated with vehicle or EYA2i and isotype IgG (control) or anti-PD-1 antibody (FIG. 6H).

In another assay the test system is GAS6 in MDA-MB-231 cells. In words: GAS6 expression and protein in MDA-MB-231 cells. In kind it is cell-based, human. An excerpt:
(§2) FIGS. 4E and 4F represent ChIP analysis of Flag-EYA2 (FIG. 4E) and Flag-SIX1 (FIG. 4F) binding Gas6 promoter in MDA-MB-231 cells transfected with the indicated siRNAs. FIGS. 4G-4I show GAS6 expression in MCF7 cells transfected with indicated vectors (FIG. 4G) and MDA-MB-231 cells expressing indicated shRNAs (FIG. 4H) or treated with vehicle or EYA2i (FIG. 4I). FIGS. 4J and 4K show immunoblots of AXL signaling proteins in MDA-MB-231 cells transfected with control or FBXO7 siRNA (FIG. 4J) or treated with vehicle or EYA2i (FIG. 4K).
To determine how the FBXO7/EYA2-SCFFBXW7 axis maintains mesenchymal and immune evasion phenotypes of cancer cells, chromatin IP sequencing (ChIP-seq) profiles of EYA2 binding in control and FBXO7 KD cells (FIGS. 4A and 4B) were compared. FBXO7 KD decreased EYA2 binding at various genomic regions, including promoters, exons, and introns (data not shown). […] GAS6 was chosen for further analysis because of the link between AXL and mesenchymal phenotypes in TNBC cells. ChIP confirmed that EYA2 and SIX1 bound the Gas6 promoter and binding was diminished by KD of FBXO7 or co-transcriptional counterpart (FIGS. 4E and 4F). EYA2-2A also bound the Gas6 promoter (data not shown), indicating independence of CPD phosphorylation. Further, FBXO7 bound the Gas6 promoter and FBXO7 or ΔF-FBXO7 expression stimulated EYA2 binding (data not shown). […]

Another assay has as its system cancer cells. In words: Cancer cell viability upon doxorubicin treatment. In kind it is cell-based. Conditions: partially rescued by GAS6 expression, FIG. 5H. The source says:
FIGS. 5A and 5B show a gap closure assay of control, FBXO7 KD, and FBXO7 KD+GAS6 MDA-MB-231 (FIG. 5A) and BT-549 (FIG. 5B) cells. FIGS. 5C and 5D show the migration (FIG. 5C) and invasion (FIG. 5D) of indicated control, FBXO7 KD, and FBXO7 KD+GAS6 cells. […] FIGS. 5G and 5H show viabilities of indicated control, FBXO7 KD, or FBXO7 KD+GAS6 (FIG. 5G) or vehicle or EYA2i treated (FIG. 5H) cells upon doxorubicin treatment.
FBXO7 KD diminished mesenchymal cancer cell migration and invasion in in vitro assays (data not shown). These FBXO7 KD effects were largely rescued by GAS6 expression (FIGS. 5A-5D). […] Again, these phenotypes were largely rescued by GAS6 expression (FIGS. 5E and 5F). […] Consistent with an antagonistic role of SCFFBXW7, FBXW7 KD partially rescued the reduced migration of FBXO7 KD cells and enhanced EYA2i sensitivity (data not shown).

Assay [1] has as its system MDA-MB-231-luc breast tumors. In words: Orthotopic MDA-MB-231-luc breast tumors in immunocompromised mice. In kind it is in vivo. Conditions: partially rescued by GAS6 expression.
Text: as §1

In assay [2] the test system is mesenchymal and immune-stimulatory genes, cell morphology. In words: Gene expression and cell morphology after EYA2 Tyr phosphatase inhibitor treatment. In kind it is cell-based. Conditions: similar to EYA2 KD (flat, cuboidal morphology, decreased mesenchymal, induced immune-stimulatory genes); data not shown. The source says:
EYA2 KD induced a flat, cuboidal morphology, decreased mesenchymal gene expression, and induced immune-stimulatory genes (FIGS. 2G-2I), phenocopying FBXO7 KD. […] Expression of WT EYA2, but not Tyr phosphatase mutant EYA2D274N or SIX binding mutant EYA2A532R, largely rescued the decreased mesenchymal and increased immune-stimulatory genes in FBXO7 KD cells (data not shown).

The subject of the next assay is AXL signaling. In words: Immunoblots of AXL signaling proteins in MDA-MB-231 cells. Conditions: FIG. 4K. In kind it is cell-based, human.
Text: as §2
In line with the role of GAS6 as an AXL ligand, FBXO7 KD decreased total AXL and phospho-AXLTyr702 and decreased AXL surface expression (FIGS. 4J and 4M), indicating inhibition of AXL signaling. […] GAS6 expression rescued the decreased total and phospho-AXLTyr702 in FBXO7 KD cells (FIG. 4L). Consistent with a role of SCFFBXW7 in antagonizing FBXO7 functions, FBXW7 KD rescued the decreased GAS6 and attenuated AXL signaling in FBXO7 KD cells (data not shown). […] Expression of proinflammatory cytokine suppressor and AXL signaling effector SOCS1 partially rescued the increased IFNα/β, CXCL9/10, and HLA-A/B induced by FBXO7 KD (FIG. 4O). Further, GAS6 expression rescued the increased HLA-A/B/C surface expression on FBXO7 KD cells (data not shown).
A general note: A western blot detects proteins with antibodies after separation by electrophoresis.

In the next assay the test system is FBXO7-EYA2 binding. In words: Co-IP of FBXO7-EYA2 binding in treated cells. In kind it is cell-based. Conditions: treatment of cells; data not shown. As to the method:
To gain insight into how FBXO7 maintains mesenchymal phenotypes and immune evasion of cancer cells, protein mass spectrometry was conducted to identify putative interacting proteins (FIG. 2A). Eyes Absent Homolog 2 (EYA2), a co-activator of the SIX family of homeobox transcription factors with Tyr phosphatase activity, was one of the most abundant FBXO7-interacting proteins (FIG. 2B). Immunoprecipitation (IP) and in vitro pull-down assays confirmed that FBXO7 interacted with EYA2, but not directly with co-transcriptional partner SIX1 (FIGS. 2C and 2D). EYA2's transactivation domain (AD, aa1-252) but not EYA domain (ED, aa253-538), which interacts with SIX proteins, was required for FBXO7 interaction (FIG. 2E). FBXO7's F-box motif was dispensable for EYA2 interaction (FIG. 2F).
SCFFBXW7 substrate recognition is generally triggered by GSK3β-mediated phosphorylation of the substrate CPD. Recombinant SCFFBXW7 bound a synthetic peptide corresponding to phosphorylated EYA2 CPD (FIG. 3I). […] To determine if EYA2 degradation was regulated by GSK3β, we first confirmed endogenous GSK3 β interacted with EYA2 in vivo by IP (data not shown). […] GSK3β stimulated SCFFBXW7-mediated polyubiquitylation of EYA2 in in vitro ubiquitylation reactions (FIG. 3J). […] Therefore, EYA2 is degraded by SCFFBXW7 in a GSK3β-dependent manner.

The test system of another assay is EYA2. In words: EYA2 steady-state level, stability and polyubiquitylation in cells. Conditions: data not shown. In kind it is cell-based. An excerpt:
Input proteins are shown. […] FIG. 3C represents a putative EYA2 CPD motif across species and compared with other SCF^FBXW7 substrates. […] FIGS. 3F and 3G represent WT and Flag-EYA2-2A stability in MDA-MB-231 cells (FIG. 3F) and endogenous EYA2 in WT and Fbxw7 KO HCT116 cells (FIG. 3G). […] FIG. 3K represents flag-EYA2 stability in MDA-MB-231 cells treated with vehicle (DMSO) or GSK3βi. […] Input proteins shown. […] FIG. 3O represents a model of FBXO7 inhibition of GSK3β-SCFFBXW7-mediated degradation of EYA2.
FBXW7 expression enhanced EYA2 K48-linked but not K63-linked polyubiquitylation (FIG. 3D), indicating SCFFBXW7 regulated EYA2 degradation. IP confirmed EYA2's CPD was required for FBXW7 binding (FIG. 3E). In contrast, FBXO7-EYA2 binding was independent of EYA2's CPD (data not shown). […] In isogenic WT and Fbxw7 knockout (KO) cell lines, the steady-state level and stability of EYA2 increased and polyubiquitylation decreased in the absence of Fbxw7 (FIGS. 3G, 3H).
SCFFBXW7 substrate recognition is generally triggered by GSK3β-mediated phosphorylation of the substrate CPD. Recombinant SCFFBXW7 bound a synthetic peptide corresponding to phosphorylated EYA2 CPD (FIG. 3I). […] To determine if EYA2 degradation was regulated by GSK3β, we first confirmed endogenous GSK3 β interacted with EYA2 in vivo by IP (data not shown). […]

Turning to `O=C(N/N=C/c1ccc(Sc2ccccn2)o1)c1cccc(F)c1` [EYA2i, MLS000544460], in the assay with 4T1-luc breast tumors (flow cytometric and IHC analyses of 4T1-luc tumors), the “intertumoral infiltration of CD8+T and NK cells” value was “stimulated”. For the same molecule, the “H-2Kd MHC class I alloantigen surface expression on 4T1-luc tumor cells” value in the assay on 4T1-luc breast tumors (flow cytometry, FIG. 6L) was “increased”. Further, the “4T1-luc tumor growth / antitumor response” value with 4T1-luc breast tumors (immunocompetent mice, FIGS. 6H and 6I) is on record as “modestly reduced”. Also, the “total and secreted GAS6 protein” value with GAS6 in MDA-MB-231 cells (data not shown) is “decreased total and secreted GAS6 protein”. Also, in the assay on GAS6 in MDA-MB-231 cells (mesenchymal MDA-MB-231 cells, FIG. 4I), the GAS6 expression result is recorded as “decreased GAS6 expression”. Further, in the assay with cancer cells, the “sensitivity of cancer cells to doxorubicin treatment” value was “sensitized cancer cells to doxorubicin treatment”. The lung metastases result in assay [1] (MDA-MB-231-luc) is “diminished”. For the same molecule, the “tumor cell autonomous growth” value in assay [1] (orthotopic MDA-MB-231-luc breast tumors) is “diminished”. Besides, the “effects on gene expression and cell morphology” value in assay [2] is “induced similar effects on gene expression and cell morphology”. Also, the AXL signaling entry in the assay on AXL signaling was “suppressed AXL signaling”.
Take `NS(=O)(=O)OC[C@@H]1C[C@@H](n2ccc3c(N[C@H]4CCc5ccccc54)ncnc32)C[C@@H]1O` [MLN4924]: the FBXO7-EYA2 binding entry in the assay on FBXO7-EYA2 binding is “did not disrupt FBXO7-EYA2 binding”. For the same molecule, the EYA2 levels entry in the assay with EYA2 is “increased EYA2 levels”.
